Here are results for two compounds from ChEMBL document CHEMBL5674871, “EZH2 is required for mouse oocyte meiotic maturation by interacting with and stabilizing spindle assembly checkpoint protein BubRI” (Nucleic Acids Res, 2016).

Calls of active or inactive are those of the source. The rule behind the calls is not given here.

For test [1], the system named is Oocyte. Kind of test: Effect on EZH2 protein expression in ICR mouse oocyte at 5 uM for 14 hrs by Western blot analysis. The format is functional, cell-based. In general terms: Immunoblotting shows a protein as a band on a membrane.
For test [2], the target named is Histone-lysine N-methyltransferase EZH2 (Mus musculus) (UniProt Q61188). In words: Inhibition of EZH2 in ICR mouse oocyte assessed as EED protein level at 5 uM by Western blot analysis. The format is cell-based.
Histone-lysine N-methyltransferase EZH2 (Mus musculus), sequence (Q61188 whole entry): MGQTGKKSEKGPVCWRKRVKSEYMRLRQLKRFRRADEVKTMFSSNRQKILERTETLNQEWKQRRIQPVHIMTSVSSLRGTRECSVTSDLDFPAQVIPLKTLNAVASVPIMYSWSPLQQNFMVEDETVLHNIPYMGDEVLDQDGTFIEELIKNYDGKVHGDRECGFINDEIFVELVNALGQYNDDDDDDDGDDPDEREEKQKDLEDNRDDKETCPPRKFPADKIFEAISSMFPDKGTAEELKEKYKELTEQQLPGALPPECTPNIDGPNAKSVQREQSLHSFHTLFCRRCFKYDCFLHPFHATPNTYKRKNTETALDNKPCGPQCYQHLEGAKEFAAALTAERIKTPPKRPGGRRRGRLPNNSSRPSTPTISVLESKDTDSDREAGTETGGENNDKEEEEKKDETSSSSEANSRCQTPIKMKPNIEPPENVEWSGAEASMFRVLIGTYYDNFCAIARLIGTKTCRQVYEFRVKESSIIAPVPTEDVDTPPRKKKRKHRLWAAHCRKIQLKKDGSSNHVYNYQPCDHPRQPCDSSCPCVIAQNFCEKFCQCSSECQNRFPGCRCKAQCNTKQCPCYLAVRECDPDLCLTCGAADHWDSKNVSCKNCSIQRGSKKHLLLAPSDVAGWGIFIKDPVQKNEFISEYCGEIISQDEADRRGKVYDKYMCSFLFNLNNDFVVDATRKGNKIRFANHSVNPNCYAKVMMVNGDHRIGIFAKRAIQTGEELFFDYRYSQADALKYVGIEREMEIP
Test [3] shares this target. In words: Inhibition of EZH2 in ICR mouse oocyte assessed as SUZ12 protein level at 5 uM by Western blot analysis. Type of test: cell-based.
In test [4] the test system is Oocyte. Kind of test: Effect on ICR mouse oocyte meiotic maturation assessed as PB1 extrusions at 5 uM by immunofluorescence analysis. The format is functional, cell-based.
For test [5], the target named is Histone-lysine N-methyltransferase EZH2 (Mus musculus) (UniProt Q61188). Kind of test: Inhibition of EZH2 in ICR mouse oocyte assessed as decrease in H3K27 trimethylation level at 5 uM by Immunofluorescence analysis. Type of test: cell-based.
Test [6] shares this target. In words: Inhibition of EZH2 in ICR mouse oocyte assessed as effect on H3 level at 5 uM by Immunofluorescence analysis. Type of test: cell-based.
The target is the same in test [7]. Kind of test: Inhibition of EZH2 methyltransferase activity in ICR mouse oocyte assessed as decrease in H3K9me2 level at 5 uM by Immunofluorescence analysis. Type of test: cell-based.
For test [8], the system named is Oocyte. In words: Effect on EZH2 protein expression in ICR mouse oocyte at 1 uM for 14 hrs by Western blot analysis. The format is functional, cell-based.
Test [9] has as its target Histone-lysine N-methyltransferase EZH2 (Mus musculus) (UniProt Q61188). Kind of test: Inhibition of EZH2 in ICR mouse oocyte assessed as EED protein level at 1 uM by Western blot analysis. The format is cell-based.
Test [10] shares this target. Kind of test: Inhibition of EZH2 in ICR mouse oocyte assessed as SUZ12 protein level at 1 uM by Western blot analysis. Type of test: cell-based.
For test [11] the target is unchanged. In words: Inhibition of EZH2 methyltransferase activity in ICR mouse oocyte assessed as decrease in H3K27 trimethylation level at 1 uM by Immunofluorescence analysis. Type of test: cell-based.
For test [12] the target is unchanged. In words: Inhibition of EZH2 in ICR mouse oocyte assessed as effect on H3 level at 1 uM by Immunofluorescence analysis. Type of test: cell-based.
The target is the same in test [13]. In words: Inhibition of EZH2 methyltransferase activity in ICR mouse oocyte assessed as effect on H3K9me2 level at 1 uM by Immunofluorescence analysis. Type of test: cell-based.
The test system of test [14] is Oocyte. Kind of test: Effect on ICR mouse oocyte meiotic maturation assessed as PB1 extrusions at 1 uM by immunofluorescence analysis. The format is functional, cell-based.
The subject of test [15] is Oocyte. In words: Effect on ICR mouse oocyte meiotic maturation assessed as abnormal polar bodies extrusions at 1 uM after 14 hrs by immunofluorescence analysis. Type of test: functional, cell-based.

Regarding `Nc1nccc2c1ncn2[C@@H]1C=C(CO)[C@@H](O)[C@H]1O`, the result in the test with Oocyte [1] and in the test with Oocyte [4] was inactive. In addition, the inhibition result in test [2], in [3] and in test [6] was “inactive” in each case. Moreover, the inhibition entry in test [5] and in test [7] was “Active” in each case.
On to `CCCc1cc(C)[nH]c(=O)c1CNC(=O)c1cc(-c2ccnc(N3CCN(C)CC3)c2)cc2c1cnn2C(C)C`, for which the outcome with Oocyte [8] and in the test on Oocyte [14] was inactive. Further, the inhibition entry in [9], in [10], in test [12] and in test [13] was “inactive” each time. Further, the inhibition entry in [11] was “Active”. For the same compound, the outcome in the test with Oocyte [15] was Active.
